{
  "source": "patent US5095013A",
  "about": "“2-(2-vinylpyrrolidinylthio)carbapenem derivatives” (Banyu Pharmaceutical Co., Ltd., priority 1989, dated 1992)",
  "key": {"[1]": {"test_system": "renal dehydropeptidase I (DHP-I)", "assay_type": "in vitro ADME", "text": "The DHP-I susceptivity was quantitatively analyzed by the method by Kropp et al., Antimicrob., Agents Chemother., vol. 22, p. 62-70 (1982), whereby the smaller the numerical value representing the ratio to imipenem (=1.0), the higher the stability."}, "E. cloacae Nek39": {"test_system": "E. cloacae Nek39", "assay": "in vitro antibacterial activity, agar plate dilution method (MIC)", "assay_type": "cell-based", "details": "Enterobacter cloacae, read-out: Minimum inhibitory concentration (MIC)", "procedure": "(§1) One platinum loopful of each test microorganism incubated overnight in Mueller Hinton broth, was inoculated to Mueller Hinton agar (inoculum size: 10^6 CFU/ml). Such culture media contained antibacterial agents in various concentrations. After incubation at 37° C. for 16 hours, the minimum inhibitory concentrations (MIC: μg/ml) were measured."}, "Ps. aeruginosa MB5000": {"test_system": "Ps. aeruginosa MB5000", "assay": "in vitro antibacterial activity, agar plate dilution method (MIC)", "assay_type": "cell-based", "details": "Pseudomonas aeruginosa, read-out: Minimum inhibitory concentration (MIC)", "procedure": "as §1"}, "S. aureus MB4970": {"test_system": "S. aureus MB4970", "assay": "in vitro antibacterial activity, agar plate dilution method (MIC)", "assay_type": "cell-based", "details": "Staphylococcus aureus, read-out: Minimum inhibitory concentration (MIC)", "procedure": "as §1"}, "β-lactamase": {"test_system": "β-lactamase", "details": "cited from earlier work"}, "[2]": {"test_system": "highly methicillin resistant Staphylococcus aureus resistant to imipenem", "details": "cited from earlier work"}, "DHP-I [3]": {"test_system": "DHP-I", "details": "cited from earlier work"}, "[4]": {"test_system": "imipenem resistant Pseudomonas aeruginosa", "details": "cited from earlier work"}, "[5]": {"details": "cited from earlier work"}, "[6]": {"test_system": "gram positive bacteria and gram negative bacteria", "details": "cited prior art; cited from earlier work"}, "[7]": {"details": "due to the decomposition products; cited from earlier work"}, "[8]": {"test_system": "methicillin resistant Staphylococcus aureus", "details": "prior art compounds; cited from earlier work"}, "DHP-I [9]": {"test_system": "DHP-I", "details": "cited from earlier work", "remark": "listed apart in the source"}, "[10]": {"details": "in vivo; cited from earlier work"}},
  "note": "Like-named read-outs stand apart in the source and are kept apart here.",
  "data": [
    {"smiles": "C[C@@H](O)[C@H]1C(=O)N2C(C(=O)[O-])=C(S[C@@H]3CN[C@H](/C=C/C(N)=O)C3)[C@H](C)[C@H]12.[K+]", "values": [
      {"measurement": "DHP-I susceptivity", "setting": "[1]", "result": 0.2},
      {"measurement": "MIC", "setting": "E. cloacae Nek39; NEK39, 16 h", "result": 0.025, "unit": "µg/mL"},
      {"measurement": "MIC", "setting": "Ps. aeruginosa MB5000; MB5000, 16 h", "result": 0.39, "unit": "µg/mL"},
      {"measurement": "MIC", "setting": "S. aureus MB4970; MB4970, 16 h", "result": 0.025, "unit": "µg/mL"}
    ]},
    {"smiles": "C[C@@H](O)[C@H]1C(=O)N2C(C(=O)O)=C(S[C@@H]3CN[C@H](/C=C4\\CCNC4=O)C3)[C@H](C)[C@H]12", "note": "[Example 12, (1R,5S,6S)-6-[(R)-1-Hydroxyethyl]-1-methyl-2-[(2S,4S)-2[(E)-(2-oxopyrrolidin-3-ylidene)methyl]pyrrolidin-4-ylthio]-1-carbapen-2-em-3-carboxylic acid]", "values": [
      {"measurement": "DHP-I susceptivity", "setting": "[1]", "result": 0.04},
      {"measurement": "MIC", "setting": "E. cloacae Nek39; E. cloacae Nek39, Mueller Hinton agar, inoculum 10^6 CFU/ml, 37° C., 16 hours", "result": 0.025, "unit": "µg/mL"},
      {"measurement": "MIC", "setting": "Ps. aeruginosa MB5000; Ps. aeruginosa MB5000, Mueller Hinton agar, inoculum 10^6 CFU/ml, 37° C., 16 hours", "result": 0.39, "unit": "µg/mL"},
      {"measurement": "MIC", "setting": "S. aureus MB4970; S. aureus MB4970, Mueller Hinton agar, inoculum 10^6 CFU/ml, 37° C., 16 hours", "result": 0.025, "unit": "µg/mL"}
    ]},
    {"smiles": "C[C@@H](O)[C@H]1C(=O)N2C(C(=O)O)=C(SCCN=CN)C[C@H]12", "note": "[Imipenem, imipenem]", "values": [
      {"measurement": "β-lactamase resistance", "setting": "β-lactamase", "result": "has β-lactamase resistance"},
      {"measurement": "treating effect (in words)", "setting": "[2]", "result": "does not show adequate treating effects"},
      {"measurement": "DHP-I susceptivity", "setting": "[1]", "result": 1.0},
      {"measurement": "decomposition by DHP-I in the human kidney", "setting": "DHP-I [3]", "result": "likely to be decomposed by DHP-I in the human kidney"},
      {"measurement": "treating effect (in words)", "setting": "[4]", "result": "does not show adequate treating effects"},
      {"measurement": "stability in the solid form or in an aqueous solution", "setting": "[5]; compared with thienamycin", "result": "remarkably improved over thienamycin"},
      {"measurement": "antibacterial activities (in words)", "setting": "[6]", "result": "antibacterial activities of an equal or higher level than thienamycin against various types of bacteria"},
      {"measurement": "toxicity against the kidney", "setting": "[7]", "result": "presents toxicity against the kidney due to the decomposition products"}
    ]},
    {"smiles": "C[C@@H](O)[C@H]1C(=O)N2C(C(=O)O)=C(S[C@@H]3CN[C@H](C(=O)N(C)C)C3)[C@H](C)[C@H]12", "note": "[meropenem]", "values": [
      {"measurement": "antibacterial activity against highly methicillin resistant Staphylococcus aureus (in words)", "setting": "[8]", "result": "not adequate"},
      {"measurement": "stability against DHP-I (in words)", "setting": "DHP-I [9]; prior art compounds", "result": "substantially improved"}
    ]},
    {"smiles": "C[C@@H](O)[C@H]1C(=O)N2C(C(=O)O)=C(SCCN)C[C@H]12", "note": "[thienamycin]", "values": [
      {"measurement": "decomposition by DHP-I (in words)", "setting": "DHP-I [9]; renal dehydropeptidase I, in vivo", "result": "likely to be decomposed by a certain enzyme in vivo such as renal dehydropeptidase I"},
      {"measurement": "recovery rate in the urine", "setting": "[10]", "result": "low"},
      {"measurement": "chemical stability (in words)", "setting": "[5]; cited prior art", "result": "chemically unstable"},
      {"measurement": "antibacterial activities (in words)", "setting": "[6]", "result": "strong antibacterial activities over a wide range against gram positive bacteria and gram negative bacteria"}
    ]}
  ]
}
